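1) Cells in 96-well plates. 2) Compound, 48 h, 5 concentrations. 3) Linear interpolation between surrounding doses. 4) Unreached endpoint = highest concentration. TGI: total growth inhibition.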
Assays:
Assay in all cases: inhibition of tumour cell growth, NCI panel, 48 h
HCC-2998 colon = system: HCC-2998 colon
HT29 colon = system: HT29 colon
SNB-19 CNS = system: SNB-19 CNS
UO-31 renal = system: UO-31 renal
SK-MEL-28 melanoma = system: SK-MEL-28 melanoma
SK-OV-3 ovarian = system: SK-OV-3 ovarian
UACC-257 melanoma = system: UACC-257 melanoma
OVCAR-3 ovarian = system: OVCAR-3 ovarian
TK-10 renal = system: TK-10 renal
NCI-H460 lung = system: NCI-H460 lung
A549 NSCLC = system: A549 NSCLC
SF-268 CNS = system: SF-268 CNS
M14 melanoma = system: M14 melanoma
IGROV1 ovarian = system: IGROV1 ovarian
MDA-N = system: MDA-N
BT-549 breast = system: BT-549 breast
HS 578T breast = system: HS 578T breast

SMILES	TGI (HCC-2998 colon) [µM]	TGI (HT29 colon) [µM]	TGI (SNB-19 CNS) [µM]	TGI (UO-31 renal) [µM]	TGI (SK-MEL-28 melanoma) [µM]	TGI (SK-OV-3 ovarian) [µM]	TGI (UACC-257 melanoma) [µM]	TGI (OVCAR-3 ovarian) [µM]	TGI (TK-10 renal) [µM]	TGI (NCI-H460 lung) [µM]	TGI (A549 NSCLC) [µM]	TGI (SF-268 CNS) [µM]	TGI (M14 melanoma) [µM]	TGI (IGROV1 ovarian) [µM]	TGI (MDA-N) [µM]	TGI (BT-549 breast) [µM]	TGI (HS 578T breast) [µM]
CCOc1ccc(N(CC(=O)N2CC(=O)Nc3cc(C)c(C)cc32)C(C)=O)cc1	> 100	> 100	> 100	> 100	> 100	> 100	> 100	> 100	> 100	> 100	> 100	> 100	> 100	–	–	–	–
CC(=O)OCC12CC(CC1OC(C)=O)c1ccccc12 (centres undefined)	> 100	> 100	> 100	> 100	> 100	> 100	> 100	> 100	> 100	> 100	> 100	> 100	> 100	> 100	–	–	–
O=c1c2ccccc2n2c(-c3ccccc3O)nnc2n1-c1ccccc1	> 100	> 100	> 100	5.72	> 100	> 100	> 100	> 100	> 100	> 100	> 100	> 100	> 100	> 100	> 100	–	–
CC(C)N(C(=O)C12C3C4C5C3C1(C(=O)O)C5C42)C(C)C (centres undefined)	> 100	> 100	> 100	> 100	> 100	> 100	> 100	> 100	> 100	> 100	> 100	> 100	> 100	> 100	–	–	–
O=C1CCC2(c3ccc(Cl)cc3)Nc3ccccc3N12 (centres undefined)	> 100	> 100	> 100	> 100	> 100	–	> 100	–	> 100	> 100	> 100	> 100	–	> 100	–	–	–
Cc1[nH]c2ncn3[nH]c(=S)nc3c2c1Cc1ccccc1	> 100	> 100	> 100	> 100	> 100	> 100	> 100	> 100	> 100	> 100	> 100	> 100	> 100	> 100	–	> 100	> 100
O=C(O)c1cnc2c(ccc3[nH]cccc32)c1=O	> 100	> 100	> 100	> 100	> 100	> 100	–	> 100	> 100	> 100	> 100	> 100	> 100	> 100	–	–	–
CC1(O)CC2C(CC1SC1CC3C(CC1(C)O)C3(C)C)C2(C)C (centres undefined)	> 100	> 100	–	> 100	> 100	> 100	> 100	> 100	> 100	> 100	> 100	> 100	> 100	> 100	–	–	–

Source: PubChem BioAssay (NCI)
